# According to US10221167B2, “Hydroxyalkylamine- and hydroxycycloalkylamine-substituted diamine-arylsulfonamide compounds with selective activity in voltage-gated sodium channels” (Merck Sharp & Dohme Corp., priority 2015, dated 2019):
# Tests used:
# [1] = molecular target: T1, human Nav1.5 channels stably expressed in HEK 293 cells (Homo sapiens, UniProt Q14524); assay: IonWorks Quattro automated patch-clamp, Nav1.5 (selectivity ratio versus Nav1.7); assay type: cell-based; conditions: selectivity for Nav1.7 over Nav1.5, inactivated state block
# T1 construct: expressed in transfected cells
# T1 sequence (Q14524 whole entry): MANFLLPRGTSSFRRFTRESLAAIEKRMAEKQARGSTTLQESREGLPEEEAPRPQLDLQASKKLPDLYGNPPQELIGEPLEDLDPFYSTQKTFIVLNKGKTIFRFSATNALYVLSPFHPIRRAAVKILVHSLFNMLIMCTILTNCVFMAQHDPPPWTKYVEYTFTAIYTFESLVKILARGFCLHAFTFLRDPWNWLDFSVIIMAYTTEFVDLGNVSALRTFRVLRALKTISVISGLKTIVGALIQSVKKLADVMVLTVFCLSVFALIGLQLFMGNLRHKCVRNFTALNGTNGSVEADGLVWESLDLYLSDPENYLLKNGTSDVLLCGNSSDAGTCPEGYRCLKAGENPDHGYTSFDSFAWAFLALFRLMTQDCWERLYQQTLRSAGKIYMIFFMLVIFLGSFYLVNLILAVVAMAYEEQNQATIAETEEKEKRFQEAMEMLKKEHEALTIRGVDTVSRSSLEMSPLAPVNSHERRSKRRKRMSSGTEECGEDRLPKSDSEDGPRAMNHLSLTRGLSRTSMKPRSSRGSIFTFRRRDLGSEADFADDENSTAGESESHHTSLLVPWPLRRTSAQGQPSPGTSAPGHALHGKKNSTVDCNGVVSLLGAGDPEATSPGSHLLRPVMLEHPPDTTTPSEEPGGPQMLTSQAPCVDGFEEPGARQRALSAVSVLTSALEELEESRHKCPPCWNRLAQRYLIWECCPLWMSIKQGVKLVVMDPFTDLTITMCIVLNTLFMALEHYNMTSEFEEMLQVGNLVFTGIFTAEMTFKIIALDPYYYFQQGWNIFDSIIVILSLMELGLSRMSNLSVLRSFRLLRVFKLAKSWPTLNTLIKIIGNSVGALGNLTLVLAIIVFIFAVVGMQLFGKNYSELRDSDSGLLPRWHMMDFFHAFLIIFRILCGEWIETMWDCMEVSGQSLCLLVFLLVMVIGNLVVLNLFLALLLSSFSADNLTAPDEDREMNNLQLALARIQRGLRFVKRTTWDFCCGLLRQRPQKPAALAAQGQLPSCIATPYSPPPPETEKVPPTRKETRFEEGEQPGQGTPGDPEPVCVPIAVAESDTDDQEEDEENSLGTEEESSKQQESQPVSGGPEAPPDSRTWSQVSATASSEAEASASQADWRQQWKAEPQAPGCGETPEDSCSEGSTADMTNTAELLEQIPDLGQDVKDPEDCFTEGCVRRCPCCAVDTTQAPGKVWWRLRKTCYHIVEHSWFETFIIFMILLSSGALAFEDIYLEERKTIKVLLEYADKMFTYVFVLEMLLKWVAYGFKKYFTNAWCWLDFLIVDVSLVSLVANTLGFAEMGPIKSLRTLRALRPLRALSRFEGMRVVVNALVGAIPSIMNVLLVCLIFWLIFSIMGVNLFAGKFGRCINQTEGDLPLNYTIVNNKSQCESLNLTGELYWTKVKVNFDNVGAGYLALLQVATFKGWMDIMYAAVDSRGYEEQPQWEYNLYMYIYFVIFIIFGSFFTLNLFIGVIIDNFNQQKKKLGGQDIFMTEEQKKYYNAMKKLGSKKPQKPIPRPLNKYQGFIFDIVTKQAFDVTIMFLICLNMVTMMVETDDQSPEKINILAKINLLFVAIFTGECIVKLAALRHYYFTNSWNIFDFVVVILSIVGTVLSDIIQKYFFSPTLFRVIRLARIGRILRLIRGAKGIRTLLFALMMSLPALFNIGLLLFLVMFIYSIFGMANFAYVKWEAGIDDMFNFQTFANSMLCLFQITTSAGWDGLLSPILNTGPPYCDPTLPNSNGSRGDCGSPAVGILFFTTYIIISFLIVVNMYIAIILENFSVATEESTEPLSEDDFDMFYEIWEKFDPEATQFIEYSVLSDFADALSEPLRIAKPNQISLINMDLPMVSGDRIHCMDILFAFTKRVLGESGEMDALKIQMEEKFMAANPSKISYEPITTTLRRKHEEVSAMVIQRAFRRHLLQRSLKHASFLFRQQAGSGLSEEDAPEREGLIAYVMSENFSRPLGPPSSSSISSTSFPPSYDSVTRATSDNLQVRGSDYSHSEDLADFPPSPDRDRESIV
# Protocol: (§1) Compounds were tested on human Nav1.7 and Nav1.5 channels stably expressed in HEK 293 cells. […] Cells were sealed on a planar substrate using the Population Patch Plate (PPC) technology. Electrical access was obtained using both nystatin and amphotericin. A double-pulse protocol was used for the determination of IC50 values for inactivated state block. Nav1.7 and Nav1.5 expressing cells were voltage clamped at −100 mV and −110 mV, respectively. A depolarizing prepulse to −10 mV (Nav1.7) or −30 mV (Nav1.5) for 1000 ms followed by a 10 ms repolarization to −100 mV (Nav1.7) or −110 mV (Nav1.5) was given to generate fractional channel inactivation of ˜50%, followed by a 10 ms test pulse to −10 mV (Nav1.7) or −30 mV (Nav1.5) to measure peak current in control conditions and after compound addition. The following recording solutions were used (mM). External: 150 NaCl, 2 CaCl2, 5 KCl, 1 Mg Cl2, 10 HEPES, 12 Dextrose; internal: 120 CsF, 30 CsCl, 10 EGTA, 5 HEPES, 5 NaF, 2 MgCl2.
# (§2) For all electrophysiology experiments, offline analysis was used to determine percent inhibition as a function of drug concentration. IC50 values were determined by fitting to the Hill equation.
# (§3) The various compounds in Examples 1 through 4 and Tables 1 through 3 exemplified above were assayed for activity and selectivity using the foregoing IonWorks® technique. The results are reported in the following paragraph in a format expressing the identification of the compound with reference Example and compound (e.g. Ex 1-1 is Example 1, compound 1) followed by the observed potency in nM and the ratio of Nav1.7 potency:Nav 1.5 potency as described here. […]
# [2] = molecular target: T2, human Nav1.7 channels stably expressed in HEK 293 cells (Homo sapiens, UniProt Q15858); assay: IonWorks Quattro automated patch-clamp, state-dependent inhibition of Nav1.7; assay type: cell-based; conditions: inactivated state block, double-pulse protocol, holding -100 mV, read-out: potency for the Nav 1.7 sodium ion channel (as measured by IonWorks)
# T2 construct: expressed in transfected cells
# T2 sequence (Q15858 whole entry): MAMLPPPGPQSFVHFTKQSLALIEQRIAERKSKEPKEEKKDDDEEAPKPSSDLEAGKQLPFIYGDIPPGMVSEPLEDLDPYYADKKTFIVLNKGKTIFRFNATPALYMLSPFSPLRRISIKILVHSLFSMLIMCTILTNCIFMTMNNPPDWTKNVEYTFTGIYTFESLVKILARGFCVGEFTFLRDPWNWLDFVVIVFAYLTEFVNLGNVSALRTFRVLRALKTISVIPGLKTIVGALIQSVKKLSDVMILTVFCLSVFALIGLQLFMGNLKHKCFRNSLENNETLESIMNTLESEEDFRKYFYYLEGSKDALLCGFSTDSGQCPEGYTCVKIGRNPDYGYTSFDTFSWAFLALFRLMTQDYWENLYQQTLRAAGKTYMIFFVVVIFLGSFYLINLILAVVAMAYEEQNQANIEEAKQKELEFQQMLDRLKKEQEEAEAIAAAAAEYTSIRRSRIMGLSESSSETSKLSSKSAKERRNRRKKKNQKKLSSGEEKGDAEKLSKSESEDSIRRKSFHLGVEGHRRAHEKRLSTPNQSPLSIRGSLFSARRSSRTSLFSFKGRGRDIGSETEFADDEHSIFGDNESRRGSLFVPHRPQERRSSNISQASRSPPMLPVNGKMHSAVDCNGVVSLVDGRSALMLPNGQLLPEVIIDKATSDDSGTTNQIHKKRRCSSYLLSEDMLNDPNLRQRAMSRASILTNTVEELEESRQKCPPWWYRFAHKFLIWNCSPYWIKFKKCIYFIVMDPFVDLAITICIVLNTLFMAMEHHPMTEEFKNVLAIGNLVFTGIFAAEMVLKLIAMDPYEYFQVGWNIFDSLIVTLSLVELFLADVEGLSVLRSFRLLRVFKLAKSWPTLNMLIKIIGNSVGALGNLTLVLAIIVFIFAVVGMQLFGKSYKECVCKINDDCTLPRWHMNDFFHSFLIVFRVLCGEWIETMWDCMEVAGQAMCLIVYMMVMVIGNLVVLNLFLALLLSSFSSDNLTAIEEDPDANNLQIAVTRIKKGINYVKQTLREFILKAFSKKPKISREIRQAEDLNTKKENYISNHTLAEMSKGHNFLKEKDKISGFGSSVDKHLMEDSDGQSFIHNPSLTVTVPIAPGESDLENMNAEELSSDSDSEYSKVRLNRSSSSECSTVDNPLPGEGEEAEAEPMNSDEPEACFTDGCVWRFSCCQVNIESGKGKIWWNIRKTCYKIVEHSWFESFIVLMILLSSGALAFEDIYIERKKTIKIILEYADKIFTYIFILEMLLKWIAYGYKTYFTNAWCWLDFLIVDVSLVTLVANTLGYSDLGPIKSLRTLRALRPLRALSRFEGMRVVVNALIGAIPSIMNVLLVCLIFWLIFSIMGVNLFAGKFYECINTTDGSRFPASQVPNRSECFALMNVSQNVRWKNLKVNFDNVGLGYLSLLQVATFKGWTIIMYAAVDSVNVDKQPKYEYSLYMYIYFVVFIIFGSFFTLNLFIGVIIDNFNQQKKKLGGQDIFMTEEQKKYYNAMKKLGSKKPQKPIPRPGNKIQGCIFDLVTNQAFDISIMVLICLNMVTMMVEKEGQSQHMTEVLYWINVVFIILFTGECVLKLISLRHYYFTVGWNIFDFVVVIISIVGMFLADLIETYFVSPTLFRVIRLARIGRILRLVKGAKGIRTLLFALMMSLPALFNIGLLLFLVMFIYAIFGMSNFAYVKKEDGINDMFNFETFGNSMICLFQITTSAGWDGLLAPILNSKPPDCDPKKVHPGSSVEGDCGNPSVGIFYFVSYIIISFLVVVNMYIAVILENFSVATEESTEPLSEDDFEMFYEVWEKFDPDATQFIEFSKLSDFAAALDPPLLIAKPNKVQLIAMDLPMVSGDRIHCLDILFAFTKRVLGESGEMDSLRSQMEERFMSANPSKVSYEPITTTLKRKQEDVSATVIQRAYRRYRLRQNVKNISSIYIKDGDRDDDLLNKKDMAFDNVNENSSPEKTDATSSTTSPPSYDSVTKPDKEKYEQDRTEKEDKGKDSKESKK
# Protocol: as §1, §2, §3
smiles,measurement,setting,value
"Cc1cc(S(=O)(=O)Nc2ncc(F)s2)c(F)cc1NCCCCNCC1(O)CNC1 [EX 1-4, 2-fluoro-N-(5-fluoro-1,3-thiazol-2-yl)-4-[(4-{[(3-hydroxyazetidin-3-yl)methyl]amino}butyl)amino]-5-methylbenzenesulfonamide]",ratio of Nav1.7 potency:Nav 1.5 potency,[1],≥ 846
same,IC50,[2],0.039 µM
"O=S(=O)(Nc1ncc(F)s1)c1cc(Cl)c(NCCCCNC[C@@H]2C[C@H](O)CN2)cc1F [EX 2-21, 5-chloro-2-fluoro-N-(5-fluoro-1,3-thiazol-2-yl)-4-{[4-({[(2S,4S)-4-hydroxypyrrolidin-2-yl]methyl}amino)butyl]amino} benzenesulfonamide]",ratio of Nav1.7 potency:Nav 1.5 potency,[1],≥ 344
same,IC50,[2],0.032 µM
"O=S(=O)(Nc1ncns1)c1cc(Cl)c(NCCCCNCC2(O)CNC2)cc1F [EX 2-1, 5-chloro-2-fluoro-4-[(4-{[(3-hydroxyazetidin-3-yl)methyl]amino}butyl)amino]-N-1,2,4-thiadiazol-5-ylbenzenesulfonamide]",ratio of Nav1.7 potency:Nav 1.5 potency,[1],≥ 2063
same,IC50,[2],0.016 µM
NC[C@H](CO)NCCCCNc1cc(F)c(S(=O)(=O)Nc2ncns2)cc1Cl [EX 2-41],ratio of Nav1.7 potency:Nav 1.5 potency,[1],≥ 655
same,IC50,[2],0.029 µM
"NC[C@H](CO)NCCCCNc1cc(F)c(S(=O)(=O)Nc2nccs2)cc1Cl [EX 2-39, 4-[(4-{[(1R)-2-amino-1-(hydroxymethyl)ethyl)amino}butyl)amino]-5-chloro-2-fluoro-N-1,3-thiazol-2-ylbenzenesulfonamide]",ratio of Nav1.7 potency:Nav 1.5 potency,[1],≥ 550
same,IC50,[2],0.06 µM
"NC[C@@H](CO)NCCCCNc1cc(F)c(S(=O)(=O)Nc2ncc(F)s2)cc1Cl [EX 2-36, 4-[(4-{[(1S)-2-amino-1-(hydroxymethyl)ethyl]amino}butyl)amino]-5-chloro-2-fluoro-N-(5-fiuoro-1,3-thiazol-2-yl)benzenesutfonamide]",ratio of Nav1.7 potency:Nav 1.5 potency,[1],≥ 1375
same,IC50,[2],0.024 µM
"O=S(=O)(Nc1ncc(F)s1)c1cc(Cl)c(NCCCCNC[C@@H]2C[C@@H](O)CN2)cc1F [EX 2-22, 5-chloro-2-fluoro-N-(5-fluoro-1,3-thiazol-2-yl)-4-{[4-({[(2S,4R)-4-hydroxypyrrolidin-2-yl]methyl}amino)butyl]amino} benzenesulfonamide]",ratio of Nav1.7 potency:Nav 1.5 potency,[1],≥ 942
same,IC50,[2],0.035 µM
"O=S(=O)(Nc1ncns1)c1cc(Br)c(NCCCCN[C@@H]2CNC[C@H]2O)cc1F [EX 2-44, 5-bromo-2-fluoro-4-((4-(((3R,4R)-4-hydroxypyrrolidin-3-yl)amino)butyl)amino)-N-(1,2,4-thiadiazol-5-yl)benzenesulfonamide]",ratio of Nav1.7 potency:Nav 1.5 potency,[1],≥ 1300
same,IC50,[2],0.025 µM
"Cc1csc(NS(=O)(=O)c2cc(Cl)c(NCCCCNCC3(O)CNC3)cc2F)n1 [EX 1-9, 5-chloro-2-fluoro-4-[(4-{[(3-hydroxyazetidin-3-yl)methyl]amino}butyl)amino]-N-(4-methyl-1,3-thiazol-2-yl)-benzenesulfonamide]",ratio of Nav1.7 potency:Nav 1.5 potency,[1],≥ 600
same,IC50,[2],0.055 µM
"NCC1(O)CN(CCCCNc2cc(F)c(S(=O)(=O)Nc3ncns3)cc2Br)C1 [EX 1-11, 4-((4-(3-(aminomethyl)-3-hydroxyazetidin-1-yl)butyl)amino)-5-bromo-2-fluoro-N-(1,2,4-thiadiazol-5-yl)benzenesulfonamide]",ratio of Nav1.7 potency:Nav 1.5 potency,[1],≥ 5000
same,IC50,[2],0.0066 µM
"NC[C@H](O)CNCCCCNc1cc(F)c(S(=O)(=O)Nc2ncns2)cc1Br [EX 1-7, 4-[(4-{[(2S)-3-amino-2-hydroxypropyl]-amino}butyl)amino]-5-bromo-2-fluoro-N-1,2,4-thiadiazol-5-yl-benzenesulfonamide]",ratio of Nav1.7 potency:Nav 1.5 potency,[1],≥ 4714
same,IC50,[2],0.007 µM
"O=S(=O)(Nc1ncc(F)s1)c1cc(Cl)c(NCCCCN[C@H]2CNC[C@@H]2O)cc1F [EX 2-16, 5-chloro-2-fluoro-N-(5-fluoro-1,3-thiazol-2-yl)-4-[(4-{[(3S,4S)-4-hydroxypyrrolidin-3-yl]amino}butyl)amino] benzenesulfonamide]",ratio of Nav1.7 potency:Nav 1.5 potency,[1],≥ 1031
same,IC50,[2],0.032 µM
